Source: EP2140864A2 (H. Lundbeck A/S, priority 2001, dated 2002)

The compounds below were run against T1, human GAL3 receptor (Homo sapiens, UniProt O60755) (assay: Radioligand binding at cloned human GAL3 receptor). Settings: indolones, cloned human receptor; read-out: Ki GalR3.
T1 construct: expressed in transfected cells
T1 sequence (O60755 1-368): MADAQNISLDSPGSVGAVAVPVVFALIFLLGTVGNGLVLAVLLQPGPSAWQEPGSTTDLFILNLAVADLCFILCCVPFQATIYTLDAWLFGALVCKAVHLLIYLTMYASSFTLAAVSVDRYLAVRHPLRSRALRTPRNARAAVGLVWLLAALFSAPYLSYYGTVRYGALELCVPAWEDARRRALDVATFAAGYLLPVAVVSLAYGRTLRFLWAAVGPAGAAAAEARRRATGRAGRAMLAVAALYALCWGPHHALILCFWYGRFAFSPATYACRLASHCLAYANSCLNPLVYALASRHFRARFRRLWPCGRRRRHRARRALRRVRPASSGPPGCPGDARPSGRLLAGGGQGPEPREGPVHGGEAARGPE
Method: The present invention provides for a method of determining the binding affinity of a GAL3 antagonist, wherein the GAL3 antagonist is dissolved in a "suitable solvent". A "suitable solvent" means one which permits the measurement of binding affinity of the GAL3 antagonist to the human GAL3 receptor at concentrations less than 1 µM, preferably less than 100 nM. Examples of solvents include, but are not limited to, DMSO, ethanol, N,N-dimethylacetamide, or water. For indolones, the preferred solvent is 3% DMSO (final concentration in the assay). For pyrimidines, the preferred solvent is 1% ethanol/0.09% polypuronic acid F-127 (final concentration in the assay). For any other type of compounds, the preferred solvent is the solvent which permits the measurement of binding affinity of a GAL3 antagonist at the lowest concentration. Once a suitable solvent is ascertained for the binding assay of the human GAL3 receptor, the same solvent is used in assays to determine the binding affinity at the GAL1 receptor, the serotonin transporter, the norepinephrine transporter, and the dopamine transporter. A solvent of 0.4% DMSO is used in the central monoamine oxidase enzyme assay.
The binding properties of the pyrimidines of the present invention were evaluated at the cloned human galanin receptors, GAL1, GAL2, and GAL3, using protocols described herein.
The binding properties of the indolones of the present invention were evaluated at the cloned human galanin receptors, GAL1, GAL2, and GAL3, using protocols described herein.
LM(tk-) cells were stably transfected with the human GAL1 or GAL3 receptor. CHO cells were stably transfected with the human GAL2 receptor.
cDNAs for the human and rat GAL1, and human and rat GAL3 receptors were transfected with a G-418 resistant gene into the mouse fibroblast LM(tk-) cell line by a calcium phosphate transfection method (Cullen, 1987). Stably transfected cells were selected with G-418. Human and rat GAL2 receptors were similarly transfected into CHO cells.
Membranes were harvested from stably transfected LM(tk-) cells. Adherent cells were washed twice in ice-cold phosphate buffered saline (138 mM NaCl, 8.1 mM Na2HPO4, 2.5 mM KCl, 1.2 mM KH2PO4, 0.9 mM CaCl2, 0.5 mM MgCl2, pH 7.4) and lysed by sonication in ice-cold sonication buffer (20 mM Tris-HCl, 5 mM EDTA, pH 7.7). Large particles and debris were cleared by low speed centrifugation (200 x g, 5 min, 4°C). Membranes were collected from the supernatant fraction by centrifugation (32,000 x g, 18 min, 4°C), washed with ice-cold hypotonic buffer, and collected again by centrifugation (32,000 x g, 18 min, 4°C). The final membrane pellet was resuspended by sonication into a small volume of ice-cold binding buffer (-1 ml for every 5 plates: 10 mM NaCl, 20 mM HEPES, 0.22 mM KH2PO4, 1.26 mM CaCl2, 0.81 mM MgSO4, pH 7.4). Protein concentration was measured by the Bradford method (Bradford, 1976) using Bio-Rad Reagent, with bovine serum albumin as a standard. Membranes were held on ice for up to one hour and used fresh, or flash frozen and stored in liquid nitrogen. Membranes were prepared similarly from CHO cells.
Galanin Recentors: Binding assays were performed according to the following published methods: human GAL3 (PCT International Publication No. WO 98/15570), human GAL1 (PCT International Publication No. WO 95/2260), human GAL2 (PCT International Publication No. WO 97/26853).
Binding data were analyzed using nonlinear regression and statistical techniques available in the GraphPAD Prism package (San Diego, CA). Enzymatic assay data were derived from a standard curve of reference compound data.
For `O=C1/C(=N\c2ccc(Cl)c(Cl)c2)c2ccccc2N1Cc1ccccn1` [Example 254], the Ki was 64 nM. `Cc1noc(C)c1CN1C(=O)/C(=N\c2ccc(Cl)c(Cl)c2)c2ccccc21` [Example 255] showed a Ki of 49 nM. In the case of `O=C1/C(=N\c2ccc(Cl)c(Cl)c2)c2ccccc2N1c1cccc(C(F)(F)F)c1` [Example 256, (3Z)-3-[(3,4-DICHLOROPHENYL)IMINO]-1-[3-(TRIFLUOROMETHYL)PHENYL]-1,3-DIHYDRO-2H-INDOL-2-ONE], the Ki is reported as 18 nM. In the case of `O=C1/C(=N\c2ccc(Cl)c(Cl)c2)c2ccccc2N1c1cc(Cl)cc(Cl)c1` [Example 257, (3Z)-1-(3,5-DICHLOROPHENYL)-3-[(3,4-DICHLOROPHENYL)IMINO]-1,3-DIHYDRO-2H-INDOL-2-ONE], the Ki is reported as 33 nM. For `COc1ccc2c(c1)N(c1ccccc1)C(=O)/C2=N\c1ccc(Cl)c(Cl)c1` [Example 258, (3Z)-3-[(3,4-DICHLOROPHENYL)IMINO]-6-METHOXY-1-PHENYL-1,3-DIHYDRO-2H-INDOL-2-ONE], the Ki was 67 nM. For `Cc1cc(/N=C2\C(=O)N(c3ccsc3)c3ccccc32)ccc1Cl` [Example 259], the Ki was 55 nM. For `O=C1/C(=N\c2ccc3ccccc3c2)c2ccccc2N1c1ccsc1` [Example 260, (3Z)-3-(2-NAPHTHYLIMINO)-1-(3-THIENYL)-1,3-DIHYDRO-2H-INDOL-2-ONE], the Ki was 60 nM.

Same assay, conditions: pyrimidines, cloned human receptor; read-out: Ki GalR3
`COc1cc(Nc2cc(N(C)C)nc(N3CCN(c4ccccn4)CC3)n2)cc(OC)c1` [Example 202] showed a Ki of 740 nM. With `CN(C)c1cc(Nc2cccc(OCc3ccccc3)c2)nc(N2CCN(c3cccc(Br)c3)CC2)n1` [Example 203] the Ki was 52 nM. `Cc1ccc(Nc2cc(N(C)C)nc(N3CCN(c4ccccn4)CC3)n2)c(Br)c1` [Example 204] was tested, and the Ki was 269 nM. `CN(C)c1cc(Nc2ccc(Cl)cc2Cl)nc(N2CCN(c3ccccn3)CC2)n1` [Example 205] gave a Ki of 193 nM. `CN(C)c1cc(Nc2cccc(F)c2)nc(N2CCN(c3ccccn3)CC2)n1` [Example 206] was tested, and the Ki was 454 nM. `CN(C)c1cc(Nc2cccc(OC(F)(F)F)c2)nc(N2CCN(c3ccccn3)CC2)n1` [Example 207] showed a Ki of 58 nM. Compound `CN(C)c1cc(Nc2cc(Cl)ccc2Cl)nc(N2CCN(c3ccccn3)CC2)n1` [Example 208] has a Ki of 120 nM. Compound `CCCc1ccc(Nc2cc(N(C)C)nc(N3CCN(c4ccccn4)CC3)n2)cc1` [Example 209] has a Ki of 205 nM. Work on `CCCCCc1ccc(Nc2cc(N(C)C)nc(N3CCN(c4ccccn4)CC3)n2)cc1` [Example 210] yielded a Ki of 58 nM. Compound `CCC(C)c1ccc(Nc2cc(N(C)C)nc(N3CCN(c4ccccn4)CC3)n2)cc1` (centres unmarked) [Example 211] has a Ki of 58 nM. `CN(C)c1cc(Nc2ccccc2C(C)(C)C)nc(N2CCN(c3ccccn3)CC2)n1` [Example 212] was tested, and the Ki was 231 nM. `Cc1ccc(C)c(Nc2cc(N(C)C)nc(N3CCN(c4ccccn4)CC3)n2)c1` [Example 213] showed a Ki of 165 nM. `Cc1cc(C)cc(Nc2cc(N(C)C)nc(N3CCN(c4ccccn4)CC3)n2)c1` [Example 214] gave a Ki of 676 nM. Compound `Cc1cccc(Nc2cc(N(C)C)nc(N3CCN(c4ccccn4)CC3)n2)c1C` [Example 215] has a Ki of 450 nM. `CN(C)c1cc(Nc2cccc(Cc3ccccc3)c2)nc(N2CCN(c3ccccn3)CC2)n1` [Example 216] showed a Ki of 50 nM. In the case of `CN(C)c1cc(Nc2ccc(Br)cc2Cl)nc(N2CCN(c3ccccn3)CC2)n1` [Example 217], the Ki is reported as 190 nM. Work on `CN(C)c1cc(Nc2cccc(Cl)c2Cl)nc(N2CCN(c3ccccn3)CC2)n1` [Example 218] yielded a Ki of 616 nM. Work on `CN(C)c1cc(Nc2cc(F)c(F)cc2F)nc(N2CCN(c3ccccn3)CC2)n1` [Example 219] yielded a Ki of 558 nM. With `COc1ccc(Cl)cc1Nc1cc(N(C)C)nc(N2CCN(c3ccccn3)CC2)n1` [Example 220] the Ki was 708 nM. With `CN(C)c1cc(Nc2cc(F)c(F)c(F)c2)nc(N2CCN(c3ccccn3)CC2)n1` [Example 221] the Ki was 213 nM. `CN(C)c1cc(Nc2cc(F)ccc2Cl)nc(N2CCN(c3ccccn3)CC2)n1` [Example 222] gave a Ki of 847 nM. `Cc1ccc(Nc2cc(N(C)C)nc(N3CCN(c4ccccn4)CC3)n2)c(Cl)c1` [Example 223] was tested, and the Ki was 559 nM. `CN(C)c1cc(Nc2cccc(Cl)c2)nc(N2CCN(c3ccccn3)CC2)n1` [Example 224] was tested, and the Ki was 218 nM. Work on `COc1cc(Nc2cc(N(C)C)nc(N3CCN(Cc4ccccc4)CC3)n2)cc(C(F)(F)F)c1` [Example 225] yielded a Ki of 66 nM. Compound `COc1ccc(C(F)(F)F)cc1Nc1cc(N(C)C)nc(N2CCN(Cc3ccccc3)CC2)n1` [Example 226] has a Ki of 72 nM. Compound `COc1ccc(OC)c(Nc2cc(N(C)C)nc(N3CCN(Cc4ccccc4)CC3)n2)c1` [Example 227] has a Ki of 600 nM. `CN(C)c1cc(Nc2cccc(OCc3ccccc3)c2)nc(N2CCN(Cc3ccccc3)CC2)n1` [Example 228] gave a Ki of 32 nM. Compound `CN(C)c1cc(Nc2ccc(C(F)(F)F)cc2)nc(N2CCN(Cc3ccccc3)CC2)n1` [Example 229] has a Ki of 37 nM. In the case of `CN(C)c1cc(Nc2ccc(Cl)c(Cl)c2Cl)nc(N2CCN(Cc3ccccc3)CC2)n1` [Example 230], the Ki is reported as 52 nM. For `Cc1ccc(Nc2cc(N(C)C)nc(N3CCN(Cc4ccco4)CC3)n2)cc1` [Example 231], the Ki was 136 nM. Compound `COc1ccc(CCNc2nc(Nc3ccc(C)cc3)cc(N(C)C)n2)cc1` [Example 232] has a Ki of 155 nM. Compound `COc1cccc(Nc2cc(N(C)C)nc(N3CCN(CC4CCCO4)CC3)n2)c1` (centres unmarked) [Example 233] has a Ki of 869 nM. With `COc1ccc(CN2CCN(c3nc(Nc4ccc(C)cc4)cc(N(C)C)n3)CC2)cc1` [Example 235] the Ki was 114 nM. With `Cc1ccc(Nc2cc(N(C)C)nc(NCCc3cccs3)n2)cc1` [Example 237] the Ki was 404 nM. In the case of `Cc1ccc(Nc2cc(N(C)C)nc(N3CCN(Cc4ccsc4)CC3)n2)cc1` [Example 238], the Ki is reported as 331 nM. With `Cc1ccc(Nc2cc(N(C)C)nc(N3CCN(c4ccccn4)CC3)n2)cc1Br` [Example 240] the Ki was 77 nM. Compound `Cc1ccc(Nc2cc(N(C)C)nc(N3CCN(c4ncccc4C#N)CC3)n2)cc1` [Example 241] has a Ki of 261 nM. `Cc1ccc(Nc2cc(N(C)C)nc(N3CCN(c4ccccn4)CC3)n2)cc1Nc1ccccn1` [Example 242] showed a Ki of 166 nM. Compound `CN(C)c1cc(Nc2cccc(Br)c2)nc(N2CCN(c3ccccn3)CC2)n1` [Example 243] has a Ki of 46 nM. Work on `CN(C)c1cc(Nc2ccc(C(F)(F)F)cc2Cl)nc(N2CCN(Cc3ccccc3)CC2)n1` [Example 244] yielded a Ki of 55 nM. Work on `COc1cccc(Nc2cc(N(C)C)nc(N3CCN(c4ccccn4)CC3)n2)c1` [Example 245] yielded a Ki of 537 nM. In the case of `COc1cccc(Nc2cc(N(C)C)nc(N3CCN(c4ccccc4C(F)(F)F)CC3)n2)c1` [Example 246], the Ki is reported as 270 nM. `COc1cccc(Nc2cc(N(C)C)nc(NCCc3ccccc3)n2)c1` [Example 247] was tested, and the Ki was 195 nM. Compound `Cc1ccc(Nc2cc(N(C)C)nc(N(C)CCc3ccccc3)n2)cc1` [Example 248] has a Ki of 33 nM. For `Cc1ccc(Nc2cc(N3CCCCC3)nc(N3CCN(c4c(C(F)(F)F)ccc[n+]4[O-])CC3)n2)cc1` [Example 249], the Ki was 386 nM. Work on `Cc1ccc(Nc2cc(N(C)C)nc(NCCc3ccccc3)n2)cc1` [Example 250] yielded a Ki of 119 nM. `COc1cccc(Nc2cc(N(C)C)nc(N(C)CCc3ccccc3)n2)c1` [Example 251] was tested, and the Ki was 54 nM. In the case of `COc1cccc(Nc2cc(N(C)C)nc(N3CCN(Cc4ccccc4)CC3)n2)c1` [Example 252], the Ki is reported as 88 nM. In the case of `Cc1ccc(Nc2cc(N(C)C)nc(N3CCN(Cc4ccccc4)CC3)n2)cc1` [Example 253], the Ki is reported as 49 nM.
